Legend:
[1] = molecular target: His-STAT3^127-722 protein (Homo sapiens, UniProt P40763); assay: Microscale thermophoresis (MST) assay, STAT3^127–722; assay type: binding; parameters: made in house
Description: Fig. 3 N4 interacts with the STAT3-SH2 domain and interferes with the STAT3-EGFR and STAT3-NF-κB interactions. […] C–E The binding between N4 and STAT3 was examined in (C) SPR and (D) MST experiments. His-STAT3^127-722 protein was purified and used to examine the affinity between STAT3 and N4. (E) The binding between N4 and STAT3^SH2 was confirmed in MST assays. STAT3-SH2 protein was purified and labeled. N4 was serially diluted and mixed with equal volumes of labeled STAT3^SH2 protein. The MST signal was measured, and the data were analyzed by MO analysis software. F, G The FLAG-tag and HA-tag STAT3 expression plasmid was transfected into 293 T cells, followed by the addition of the indicated concentrations of N4. After 24 h, cells were lysed, and immunoprecipitation experiments were performed as described in Materials and Methods. H N4 represses STAT3 dimerization in pancreatic cancer cells. I After a 24 h treatment with 2 μM N4, pancreatic cancer cells were stimulated with IL-6 for 30 min. Cell lysates were immunoprecipitated with STAT3 overnight. […]
The MST assay was previously described. Binding affinities of N4 with the purified His-STAT3-SH2 were measured using the Monolith NT.115 device (NanoTemper Technologies). […] The samples were then loaded into premium capillaries (NanoTemper Technologies) and measured using the Monolith NT.115 device. […]

PAN02-luc = assay: Orthotopic pancreatic cancer tumor model; assay type: in vivo, C57BL/6 mice
Experimental: Fig. 7 N4 inhibits tumor growth in an orthotopic pancreatic cancer model. C57BL/6 mice were injected the tail of the pancreas with luciferase-expressing PAN02 cells (PAN02-luc) in matrigel and tumor growth was assessed (A) and quantified (B) by bioluminescent imaging weekly. Data represent the mean ± SD; *P < 0.05, **P < 0.01, ***P < 0.001, ****P < 0.0001, n.s. not significant by one-way ANOVA followed by multiple-comparison tests. (n = 5 mice per group) C After 4 weeks, mice were sacrificed and the pancreas were imaged. The tumor of pancreas were photographed (D) and weighted (E), scale bar, 0.5 cm.
Briefly, specimens of tumor tissue from xenograft models and orthotopic models were fixed with 4% paraformaldehyde solution at 4 °C overnight. […] Then, according to the manufacturer’s instructions (SK-4100; Vector laboratories), the avidin-biotin peroxidase complex was used, followed by colorimetric detection using DAB. Finally, hematoxylin was used to counterstain the sections and coverslips were mounted.
C57BL/6 mice, male, 4–6 week old were obtained from the Animal Center of East China Normal University. All animal experimental protocols were approved by the Animal Investigation Committee of the Institute of Biomedical Sciences, East China Normal University. PAN02 cells that stably expressed luciferase (PAN02-luc) were embedded in Matrigel (BD Biosciences) were injected with 5 × 10^5 in the tail of the pancreas. On the next day (day 0), the mice were subjected to bioluminescent imaging and divided into four groups according to the luciferase luminescence value. Mice were treated with intraperitoneal injection of indicated compound or drug. Tumor growth was analyzed once a week by an IVIS Imaging System (Xenogen Corporation, Alameda, CA) and end of study tumor weight was determined immediately postmortem. […] Images and measurements of bioluminescent signals were acquired and analyzed using Living Image and Xenogen software.

His-STAT3^127-722 protein, sequence (P40763 127-722): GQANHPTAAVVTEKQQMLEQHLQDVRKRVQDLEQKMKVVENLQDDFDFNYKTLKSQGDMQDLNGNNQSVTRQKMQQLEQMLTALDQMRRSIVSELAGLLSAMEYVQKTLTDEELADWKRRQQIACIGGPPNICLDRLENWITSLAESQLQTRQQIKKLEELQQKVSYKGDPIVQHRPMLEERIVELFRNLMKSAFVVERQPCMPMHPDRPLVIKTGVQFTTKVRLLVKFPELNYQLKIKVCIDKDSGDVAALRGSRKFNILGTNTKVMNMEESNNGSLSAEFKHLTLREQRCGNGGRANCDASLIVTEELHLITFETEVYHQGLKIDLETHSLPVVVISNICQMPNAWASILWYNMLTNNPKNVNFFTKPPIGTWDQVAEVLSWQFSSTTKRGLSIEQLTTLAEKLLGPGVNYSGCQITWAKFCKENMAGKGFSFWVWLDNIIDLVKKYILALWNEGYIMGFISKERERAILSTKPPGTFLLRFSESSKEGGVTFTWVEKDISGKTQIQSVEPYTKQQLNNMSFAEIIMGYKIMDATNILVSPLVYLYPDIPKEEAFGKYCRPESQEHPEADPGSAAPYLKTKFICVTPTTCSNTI

`COc1cc2c(cc1C(=O)Nc1cccc3cccnc13)CCC1C(C)(C)C(=O)C(C#N)=C[C@]21C` (stereo partly shown) [N4] was tested, and the Kd ([1]; STAT3^127-722, value printed in figure) was 2.02 µM, the Kd ([1]; STAT3^127–722) was 2.02 µM and the “expression of stromal cells marker α-SMA in vivo” value (PAN02-luc; IHC of tumor tissue) was “drastically suppressed”. For the same compound, the “expression of vimentin in vivo” value (PAN02-luc; IHC of tumor tissue) was “significantly suppressed”, the “number of TAM (F4/80+ macrophages)” value (PAN02-luc; IHC of tumor tissue) was “significantly decreased” and the “tumor volume suppressed compared with the control group” value (PAN02-luc; week 4, 10 mg/kg/d) was 97.34%. The “tumor volume suppressed compared with the control group” value (PAN02-luc; week 4, 20 mg/kg/d) was 98.88%.

Reference: paper PMC7906907, “Targeting STAT3 by a small molecule suppresses pancreatic cancer progression” (Oncogene, 2021)
